What was measured:
[1] = tested on: NHDF fibroblasts (human normal skin fibroblasts); details: comparative studies by the inventors
Description: NHDF fibroblasts (human normal skin fibroblasts) were cultured in the DMEM medium supplemented with 10% FBS and a mixture of antibiotics—penicillin and streptomycin at 37° C., 5% CO2. […] After incubation with the compounds, the cells were washed twice with warm medium. The effect on cell viability was assessed using a standard MTT test.

[2] = tested on: Wistar rats (DNCB-induced atopic dermatitis); assay: Histologic assessment of ear skin in atopic dermatitis rat model; assay type: in vivo; details: lesions treated with the composition of urolithin A; day 32; FIG. 8
Description: Wistar rats aged 5-6 weeks (at the start of the experiment) kept under standard conditions with free access to feed and water were used for the tests. The animals were divided into 5 groups, 8 individuals in each group. To prepare 2,4-dinitrochlorobenzene (DNCB) composition inducing inflammation, DNCB was dissolved in 70% ethanol to a final concentration of 1.5% (w/v). Therapeutic composition was an ointment based on white petrolatum with 0.2% or 1.0% urolithin A added. The control ointment was white petrolatum without addition of urolithin A. The induction of chronic atopic dermatitis involved local 9-fold infiltration with 60 μl 1.5% 2,4-dinitrochlorobenzene (DNCB) on each (external and internal) surface of the right ear over 3 weeks (3 times a week). Negative control was the right ear of rats without induction inflammation. Treatment of atopic dermatitis with 0.2% or 1.0% urolithin composition and white petrolatum (control) or 1.0% hydrocortisone composition (positive control) was started eight days after sensitization—one day before the fourth application of DNCB. Ointments with appropriate for given group drug added were applied in a total volume of about 20 μl to each ear surface one day before and 6 hours after each DNCB application (for a period of 3 weeks). […]

[3] = tested on: Wistar rats (DNCB-induced atopic dermatitis); assay: Ear thickness (edema) in DNCB-induced atopic dermatitis rat model; assay type: in vivo
Description: It is similar to the indications for use of hydrocortisone, which was used as a positive control in the study. Urolitin A was obtained by synthesis according to Bialonska et al. (Bialonska et al., 2009) or purchased from Sigma-Aldrich. The ointment containing urolithin A was prepared by emulsifying the weighed substance into a solid vehicle (white petrolatum) using an unguator. Wistar rats aged 5-6 weeks (at the start of the experiment) kept under standard conditions with free access to feed and water were used for the tests. The animals were divided into 5 groups, 8 individuals in each group. To prepare 2,4-dinitrochlorobenzene (DNCB) composition inducing inflammation, DNCB was dissolved in 70% ethanol to a final concentration of 1.5% (w/v). Therapeutic composition was an ointment based on white petrolatum with 0.2% or 1.0% urolithin A added. The control ointment was white petrolatum without addition of urolithin A. The induction of chronic atopic dermatitis involved local 9-fold infiltration with 60 μl 1.5% 2,4-dinitrochlorobenzene (DNCB) on each (external and internal) surface of the right ear over 3 weeks (3 times a week). Negative control was the right ear of rats without induction inflammation. Treatment of atopic dermatitis with 0.2% or 1.0% urolithin composition and white petrolatum (control) or 1.0% hydrocortisone composition (positive control) was started eight days after sensitization—one day before the fourth application of DNCB. Ointments with appropriate for given group drug added were applied in a total volume of about 20 μl to each ear surface one day before and 6 hours after each DNCB application (for a period of 3 weeks). The negative control group consisted of rats without induced inflammation and treated with white petrolatum in a regimen analogous to the composition of urolithin A or hydrocortisone. Ear thickness was assessed using an electronic mini caliper the day before inflammation was induced (day 0) and then on days 4 and 8 prior to treatment and on days 4, 8, 12, 16, […] of therapy with urolithin A composition (on days 12, 16, 20, 24, 28 and 32 after inflammation inducing, respectively). The experimental results obtained were analyzed using the Statistica 7.1 program (StatSoft, Inc., Tulsa, OK, USA) and presented as mean values±SE. Statistical significance was set at P≤0.05. The results with established normal distribution in the D'Agostin and Pearson test were prepared using two- or three-factor analysis of variance (ANOVA). Parametric post-hoc analysis for individual time points was performed using the Bonferroni test.

[4] = tested on: IL-8, TNF-alpha and IL-1beta; assay: IL-8, TNF-alpha and IL-1beta production by LPS-stimulated human neutrophils (ELISA); assay type: cell-based; details: 40 μM (FIG. 12: 5, 10 and 40 μM); LPS 100 ng/mL, 24 h; derivatives compared with urolithin A
Description: After isolation, neutrophils were suspended in RPMI 1640 medium supplemented with L-glutamine, HEPES and 10% FBS and incubated with urolithin A and its acylated derivatives (SG1, SG2, SG3, SG4, SG1_m, SG2_m, SG3_m) at a concentration of 40 μM for 1 hour before stimulation with LPS from Escherichia coli (100 ng/mL). After 24 hours, IL-8, TNF-alpha and IL-1beta levels were determined using the immunochemical ELISA method (BD biosciences). The effect on neutrophil viability was assessed using annexin V and propidium iodide staining.
The obtained results of experiments on in vitro models were analyzed using the Statistica 13 program (StatSoft, Inc., Tulsa, OK, USA) and presented as mean values±SEM. Statistical significance was set at P≤0.05. The results with established normal distribution in the D'Agostin and Pearson test were prepared using analysis of variance (ANOVA). Parametric post-hoc analysis was performed using Dunnett's test.

[5] = animal model; oral and intravenous administration; cited from earlier work
TNF-alpha = TNF-alpha production by macrophages from human peripheral blood monocytes (ELISA); assay type: cell-based; details: 40 μM; LPS 100 ng/mL, 24 h; FIG. 16
Description: Monocytes were isolated from peripheral human blood by a standard method using dextran sedimentation and Ficoll Hypaque gradient centrifugation. After isolation, monocytes were suspended in RPMI 1640 medium supplemented with L-glutamine, HEPES, streptomycin, amphotericin and gentamicin, and 20% autologous serum. Cell culture was carried out under these conditions for 7 days. […] After 24h, TNF-alpha level in the medium was determined using the immunochemical ELISA method (BD biosciences). The obtained results of experiments on in vitro models were analyzed using the Statistica 13 program (StatSoft, Inc., Tulsa, OK, USA) and presented as mean values±SEM. Statistical significance was set at P≤0.05. The results with established normal distribution in the D'Agostin and Pearson test were prepared using analysis of variance (ANOVA). Parametric post-hoc analysis was performed using Dunnett's test.

Compound: O=c1oc2cc(O)ccc2c2ccc(O)cc12 [urolithin A]
- Antiproliferative activity on human skin fibroblast cells [1]: neither urolithin A, nor 8-acetyl-urolithin A, nor 3-acetyl-urolithin A showed antiproliferative activity
- Histology of skin lesions [2]: Mild epidermal hyperplasia, infiltration of mononuclear cells (mast cells) and neutrophils. A slight infiltration of inflammatory cells around the blood vessels
- Ear edema, comparison of urolithin doses with each other ([3]; 0.2% vs 1%, p<0.05): more effective at a concentration of 1%
- Time profile of anti-edema effect, urolithin A vs. hydrocortisone ([3]; later treatment period (from day 12 to 28 of treatment), dose 0.2 and 1%, p<0.01): more effective in the later treatment period
- Ear edema (ear thickness) after local therapy ([3]; topical ointment in white petrolatum, urolithin A 0.2 and 1.0%, hydrocortisone 1%, urolithin A p<0.001, hydrocortisone p<0.01): reduced
- Anti-inflammatory (ear edema) effect compared to hydrocortisone 1% ([3]; urolithin A 0.2% ointment): absence of significantly greater efficiency
- Anti-inflammatory (ear edema) effect compared to hydrocortisone 1% ([3]; urolithin A 1% ointment, p<0.05): significantly greater anti-inflammatory effect compared to hydrocortisone
- Ear edema reduction, urolithin vs. hydrocortisone (2-factor ANOVA) ([3]; urolithin A (both doses) vs. 1% hydrocortisone, p<0.05): stronger
- Production of proinflammatory cytokines IL-8, TNF-alpha and IL-1beta by human neutrophils [4]: inhibition of the production of proinflammatory cytokines
- Toxicity [5]: no toxicity
- Inhibition of TNF-alpha production by macrophages from human peripheral blood monocytes (TNF-alpha): most active compound

From patent US12329738B2, “Urolithin A and a composition containing same for external use in inflammations of various etiologies” (WARSZAWSKI UNIWERSYTET MEDYCZNY, priority 2018, dated 2025)
